The values that follow come from patent publication US10119168B2, “Methods for the treatment of kidney fibrosis” (priority 2014, dated 2018).

SMILES strings stand for the structures.

In this data set the test system is mouse kidney. The data set is described as follows: Folic acid nephropathy model, High dose vs Low dose FA (histology, qRT-PCR). To be noted: High dose group compared to Low dose group, day 14. The method, then:
Mice were sacrificed at 1, 2, 3, 7 and 14 days following administration. […] All mice were sacrificed at 14 days.
Formalin fixed, paraffin embedded kidney sections were Masson Trichrome's stained and evaluated by a renal pathologist under a light microscope in blinded fashion relative to sample group. Percent area of fibrosis relative to the total section area was evaluated. Sirius red staining of the […] sections was performed at the Michigan State University Investigative Histopathology Laboratory.
Total RNA was extracted from frozen kidney tissue using TRIzol reagent (Invitrogen). Following RNA concentration measurement by NanoDrop spectrophotometer (Thermo Fischer Scientific), 1 μg RNA was used for cDNA preparation using QuantiTect Reverse Transcription Kit from Qiagen (Valencia, Calif.). qRT-PCR using QuantiFast SYBR Green PCR Kit (Qiagen) was performed in 384-well plates on an Applied Biosystems 7900HT Fast Real-Time PCR System instrument with the following temperature profile: 3 min enzyme activation at 95° C. followed by 40 cycles of 95° C. for 10 s, and 55° C. for 30 s. Primer pairs used are listed in Supplementary Table 1. Gapdh was used as reference gene for normalization. The SDS 2.4 software (Applied Biosystems) was used to compute the threshold cycle (Cq) and the relative expression for an mRNA was assessed using the 2^−ΔCq method.

Turning to `Nc1nc2ncc(CNc3ccc(C(=O)N[C@@H](CCC(=O)O)C(=O)O)cc3)nc2c(=O)[nH]1` [FA, folic acid], the “candidate fibrosis markers mRNA levels” value was “Nine out of ten candidate fibrosis markers showed significantly (p<0.05) higher mRNA levels”.
